Test results taken from patent US5534260A, “Percutaneous drug delivery system” (priority 1994, dated 1996).
“And” between values parts separate entries of the source, which are not always exact repeats. Equal values may be shown once. “Also recorded” adds a separate entry of the source. Read-outs that look alike come from different tables or passages of the source.

Legend:
[1] = Effect of pH on drug penetration through hairless mouse skin pretreated with papain (Example V B); format: in vitro ADME
Description: B. Effect of pH on drug penetration through hairless mouse
skin Pretreated with sigma papain of concentration 0.093

[2] = Effect of pH on drug penetration through normal untreated hairless mouse skin (Example V A); format: in vitro ADME; details: for P (permeability): mouse
in vitro = details: mouse
[3] = mouse
[4] = Penetration of polypeptides through papain-pretreated mouse skin, SDS-PAGE; format: in vitro ADME; details: for fragmentation of diffused polypeptide: diffused through papain treated skin, SDS-PAGE
Description: After papain skin treatment pursuant to Example III.1 above, polypeptides were diffused through the pretreated mouse skin using the same concentration and pH values for each test. Pure buffer solution was also diffused through the pretreated skin of the mouse to determine if any endogenous proteins diffused into the diffusate.
Comparisons of solutions of non-diffused polypeptides, diffused polypeptides and diffused buffer solutions were made using gel electrophoresis. The system used for these determinations was sodium dodecyl sulfate polyacrylamide gel electrophoresis (SDS-PAGE), a procedure well-known in the art. These comparisons determined if fragmentation of the diffused polypeptide molecules occurred.
A series of polypeptides of various molecular weights were studied.

[5] = Effect of non-enzyme components in admixture with papain on penetration of 14C-TEAB (Example IV); details: 14C-TEAB through pretreated skin (n = 1 for components alone, n = 2 combinations, n = 3 papain 0.0465 mg/ml 24 hours)
[6] = Fourier Transform Infrared spectroscopy of stratum corneum; set-up: species or system mouse; details: for Absorbance in protein areas, peak position: Table I
Protocol: A. Comparisons of normal stratum corneum (from mouse skin) to stratum corneum treated with a 0.09% concentration of papain for 24 hours was performed using Fourier Transform Infrared spectroscopy (FTIR). […] It is postulated that a shift from a random form of protein to the more organized beta sheet structure occurs. The alpha-helix structures of skin protein could be fractionated, uncoiled, or both.
A comparison of symmetric and asymmetric CH stretch bands was then made. These two bands represent lipid structure and would show any changes in the stratum corneum lipids caused by the papain.
B. Azone™ was tested as a permeation enhancer with and without the presence of papain.

[7] = pH 5.9, sigma papain 0.093 mg/ml for 24 hours
[8] = pH 6.6, sigma papain 0.093 mg/ml for 24 hours
[9] = pH 7.4, sigma papain 0.093 mg/ml for 24 hours
[10] = pH 8.0, sigma papain 0.093 mg/ml for 24 hours
[11] = TEAB, pretreated with papain 0.010 mg/0.108 ml (0.093 mg/ml)
[12] = TEAB, pretreated with papain 0.170 mg/0.602 ml (0.278 mg/ml)
[13] = TEAB, pretreated with papain 0.170 mg/0.200 ml ([…])

C=CCc1ccccc1OCC(O)CNC(C)C (stereo not shown) [Alprenolol]
P (permeability) ([1]; mouse, pH 5.9): 1.2 ×10⁻⁶ cm/s | P (permeability) ([1]; mouse, pH 6.6): 1.33 ×10⁻⁶ cm/s | P (permeability) ([1]; mouse, pH 7.4): 1.32 ×10⁻⁶ cm/s | P (permeability) ([1]; mouse, pH 8): 1.65 ×10⁻⁶ cm/s | E (enhancement) [1, 7]: 22.39 | E (enhancement) [1, 8]: 17.18 | E (enhancement) [1, 9]: 7.17 | E (enhancement) [1, 10]: 7.86 | P (permeability) ([2]; pH 5.9): 0.0536 ×10⁻⁶ cm/s | P (permeability) ([2]; pH 7.4): 0.184 ×10⁻⁶ cm/s | P (permeability) ([2]; pH 8): 0.21 ×10⁻⁶ cm/s | J (flux) ([2]; pH 5.9): 5.36 × 10^-7 mg/cm^2 /sec | J (flux) ([2]; pH 6.6): 7.74 × 10^-7 mg/cm^2 /sec | J (flux) ([2]; pH 7.4): 1.84 × 10^-6 mg/cm^2 /sec | J (flux) ([2]; pH 8): 2.10 × 10^-6 mg/cm^2 /sec

CC[N+](CC)(CC)CC.[Br-] [TEAB, tetraethylammonium bromide]
Papp (in vitro): 0.00495 ×10⁻⁶ cm/s | P (permeability) (mouse): 0.0254 ×10⁻⁶ cm/s

dioxolane [2% dioxolane]
P (permeability) [3]: 0.00521 ×10⁻⁶ cm/s

insulin: Insulin (Regular, Bovine), MW 6,000
fragmentation of diffused polypeptide [4]: determination of molecular fragmentation due to the permeation would be very difficult if not impossible

CCCCCCCC/C=C\CCCCCCCCO [10% oleyl alcohol, oleyl alcohol]
J (flux) [5]: 1.49 × 10^-4 mg cm^-2 s^-1

lysozyme: Lysozyme, MW 14,400
fragmentation of diffused polypeptide [4]: no significant difference in molecular size. The molecule remained intact and did not break apart

CC(=O)[C@H]1CC[C@H]2[C@@H]3CCC4=CC(=O)CC[C@]4(C)[C@H]3CC[C@]12C [Progesterone]
E (enhancement) [1, 7]: 1.25 | J (flux) [1, 7]: 2.88 × 10^-7 mg/cm^2 /sec | E (enhancement) [1, 8]: 1.50 | J (flux) [1, 8]: 3.51 × 10^-7 mg/cm^2 /sec | E (enhancement) [1, 9]: 1.17 | J (flux) [1, 9]: 2.73 × 10^-7 mg/cm^2 /sec | E (enhancement) [1, 10]: 1.17 | P (permeability) [1, 10]: 0.289 ×10⁻⁶ cm/s and 3.61 ×10⁻⁶ cm/s | J (flux) ([2]; pH 5.9): 2.30 × 10^-7 mg/cm^2 /sec | J (flux) ([2]; pH 6.6): 2.34 × 10^-7 mg/cm^2 /sec | J (flux) ([2]; pH 7.4): 2.34 × 10^-7 mg/cm^2 /sec and 2.92 × 10^-6 mg/cm^2 /sec | J (flux) ([2]; pH 8.0): 3.09 × 10^-6 mg/cm^2 /sec

carbonic anhydrase: Carbonic anhydrase, MW 29,000
fragmentation of diffused polypeptide [4]: fractionated during the permeation process | breakdown of molecule on exposure to papain treated skin without diffusion ([4]; donor solution of the diffusion cell): no change or breakdown of the molecule

CC(=O)OCC[N+](C)(C)C.[Cl-] [Acetylcholine Chloride, acetylcholine chloride]
E (enhancement) [1, 7]: 103.09 | J (flux) [1, 7]: 6.00 × 10^-4 mg/cm^2 /sec | P (permeability) [1, 7]: 3 ×10⁻⁶ cm/s | E (enhancement) [1, 8]: 149.23 | J (flux) [1, 8]: 7.77 × 10^-4 mg/cm^2 /sec | P (permeability) [1, 8]: 3.88 ×10⁻⁶ cm/s | E (enhancement) [1, 9]: 100.94 | J (flux) [1, 9]: 6.46 × 10^-4 mg/cm^2 /sec | P (permeability) [1, 9]: 3.23 ×10⁻⁶ cm/s | E (enhancement) [1, 10]: 67.38 | J (flux) [1, 10]: 6.28 × 10^-4 mg/cm^2 /sec | P (permeability) [1, 10]: 3.14 ×10⁻⁶ cm/s | J (flux) ([2]; pH 5.9): 5.83 × 10^-6 mg/cm^2 /sec | J (flux) ([2]; pH 6.6): 5.21 × 10^-6 mg/cm^2 /sec | J (flux) ([2]; pH 7.4): 6.41 × 10^-6 mg/cm^2 /sec | J (flux) ([2]; pH 8.0): 9.32 × 10^-6 mg/cm^2 /sec

CCCCCCCCCCCCN1CCCCCC1=O [Azone, 1-n-dodecylazacycloheptan-2-one]
Absorbance in protein areas, peak position ([6]; untreated SC 1244): 1244.5 cm⁻¹ | Absorbance in protein areas, peak position ([6]; untreated SC 1267): 1267.4 cm⁻¹ | Absorbance in protein areas, peak position ([6]; untreated SC 1295): 1296.6 cm⁻¹ | Absorbance in protein areas, peak position ([6]; untreated SC 1400.5): 1402 cm⁻¹ | Absorbance in protein areas, peak position ([6]; untreated SC 1456): 1461.8 cm⁻¹ | Absorbance in lipid areas, symmetric CH peak position ([6]; Table II, untreated 2848.3): 2850 cm⁻¹ | Absorbance in lipid areas, asymmetric CH peak position ([6]; Table II, untreated 2916.5): 2920 cm⁻¹ | Length of the 70% line, symmetric CH ([6]; Table III, untreated 8.6): 11.4 cm⁻¹ | Length of the 70% line, asymmetric CH ([6]; Table III, untreated 17.5): 27.2 cm⁻¹ | Asymm CH ([6]; Table VII, exposed SC): 2916.5 cm⁻¹ | Symm CH ([6]; Table VII, exposed SC): 2848.3 cm⁻¹ | Symm 70% line ([6]; Table VII, normal SC 8.6): 11.4 cm⁻¹ | Asymm 70% line ([6]; Table VII, normal SC 17.5): 27.2 cm⁻¹ | change in lipid structure / CH stretch bands of stratum corneum ([6]; in words, listed as Azone™): lengthening of both symmetric and asymmetric CH stretch lines but did not change their peak positions and 70% line lengthened | change in protein FTIR areas of stratum corneum ([6]; in words, listed as Azone™): did not change protein FTIR areas; also recorded: did not significantly effect the protein | change in protein FTIR areas of stratum corneum ([6]; in words, listed as azone): No significant changes occurred in the protein areas

B1: Sigma papain: papain from Sigma Chemical (protein, UniProt P00784 134-345, looked up)
Papain: IPEYVDWRQKGAVTPVKNQGSCGSCWAFSAVVTIEGIIKIRTGNLNEYSEQELLDCDRRSYGCNGGYPWSALQLVAQYGIHYRNTYPYEGVQRYCRSREKGPYAAKTDGVRQVQPYNEGALLYSIANQPVSVVLEAAGKDFQLYRGGIFVGPCGNKVDHAVAAVGYGPNYILIKNSWGTGWGENGYIRIKRGTGNSYGVCGLYTSSFYPVKN
J (flux) [11]: 6.87 × 10^-4 mg/cm^2 /sec | P (permeability) [11]: 0.85 ×10⁻⁶ cm/s | J (flux) [12]: 1.46 × 10^-3 mg/cm^2 /sec | P (permeability) [12]: 1.81 ×10⁻⁶ cm/s

B2: Allergan papain: papain contained in a contact lens cleaning product (tablets for dissolution in water) wherein activators are included (protein, UniProt P00784 134-345, looked up)
Papain: B1 Papain
modifications: contact lens cleaning tablet with activators
J (flux) [13]: 1.04 × 10^-3 mg/cm^2 /sec | P (permeability) [13]: 1.29 ×10⁻⁶ cm/s
